According to patent US20060069123A1, “Substituted dipiperidine CCR2 antagonists” (priority 2004, published 2006):
Read-outs that look alike come from different tables or passages of the source.

Tests used:
[1] = molecular target: T1, CCR2 (Homo sapiens, UniProt P41597)
T1 sequence (P41597 1-360 isoform P41597-2): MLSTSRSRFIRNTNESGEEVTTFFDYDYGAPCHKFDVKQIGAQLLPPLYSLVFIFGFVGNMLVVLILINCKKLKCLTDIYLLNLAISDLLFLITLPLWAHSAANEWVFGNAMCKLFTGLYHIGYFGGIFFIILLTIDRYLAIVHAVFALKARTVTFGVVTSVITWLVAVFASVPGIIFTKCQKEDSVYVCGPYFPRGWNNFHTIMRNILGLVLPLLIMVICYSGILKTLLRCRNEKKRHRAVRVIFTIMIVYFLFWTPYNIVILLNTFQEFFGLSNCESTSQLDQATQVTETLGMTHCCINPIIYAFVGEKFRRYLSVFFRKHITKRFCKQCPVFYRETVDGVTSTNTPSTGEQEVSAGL

[2] = system: THP-1 cells; details: Homo sapiens
[3] = system: THP-1 cells; assay: MCP-1 Induced Chemotaxis in THP-1 Cells; assay type: cell-based; details: Homo sapiens, THP-1 cells, MCP-1 0.01 μg/mL, 3 hours, read-out: Inhibition of MCP-1 Induced Chemotaxis IC50
[4] = THP-1, read-out: Inhibition of MCP-1 Induced Calcium Ion Influx IC50
[5] = THP-1, read-out: Inhibition of MCP-1 Induced Calcium Ion Influx IC50, THP-1 cells, 0.2 μM MCP-1, FLIPR

Structure (SMILES) | IC50 [1] | IC50 [2, 4] | IC50 [3] | IC50 [2, 5] | IC50 ([3]; THP-1, 3 h) | IC50 ([1]; Inhibition of MCP-1 Binding IC50, 125I labeled MCP-1 binding to CCR2, THP-1 cells)
COc1ccc(C2CCN(C(CO)C3CCN(C(=O)/C=C/c4cc(F)cc(F)c4)CC3)CC2)cc1 (stereo not drawn) [Cpd 137, (2E)-3-(3,5-difluoro-phenyl)-1-(4-{2-hydroxy-1-[4-(4-methoxy-phenyl)-piperidin-1-yl]-ethyl}-piperidin-1-yl)-propenone] | 30 nM | 210 nM | 80 nM | – | – | –
COc1ccc2c(C3CCN(C(CO)C4CCN(C(=O)/C=C/c5cc(F)cc(F)c5)CC4)CC3)c[nH]c2c1 (stereo not drawn) [Cpd 165, (2E)-3-(3,5-difluoro-phenyl)-1-(4-{2-hydroxy-1-[4-(6-methoxy-1H-indol-3-yl)-piperidin-1-yl]-ethyl}-piperidin-1-yl)-propenone] | 80 nM | 110 nM | 25 nM | – | – | –
COc1ccc2[nH]cc(C3CCN(C(CO)C4CCN(C(=O)/C=C/c5cc(F)cc(F)c5)CC4)CC3)c2c1 (stereo not drawn) [Cpd 164, (2E)-3-(3,5-difluoro-phenyl)-1-(4-{2-hydroxy-1-[4-(5-methoxy-1H-indol-3-yl)-piperidin-1-yl]-ethyl}-piperidin-1-yl)-propenone] | 10 nM | 9 nM | 40 nM | – | – | –
O=C(/C=C/c1cc(F)c(F)c(F)c1)N1CCC([C@@H](CO)N2CCC(c3c[nH]c4ccccc34)CC2)CC1 [Cpd 187, (2E)-1-(4-{(1S)-2-hydroxy-1-[4-(1H-indol-3-yl)-piperidin-1-yl]-ethyl}-piperidin-1-yl)-3-(3,4,5-trifluoro-phenyl)-propenone] | 0.6 nM | 0.05 nM | 2 nM | – | – | –
CS(=O)(=O)Nc1ccc2[nH]cc(C3CCN(C(CO)C4CCN(C(=O)/C=C/c5ccc(Cl)c(Cl)c5)CC4)CC3)c2c1 (stereo not drawn) [Cpd 198, N-{3-[1-(1-{1-[(2E)-3-(3,4-dichloro-phenyl)-acryloyl]-piperidin-4-yl}-2-hydroxy-ethyl)-piperidin-4-yl]-1H-indol-5-yl}-methanesulfonamide] | 0.6 nM | 0.02 nM | 0.2 nM | – | – | –
O=C(/C=C/c1cc(F)cc(F)c1)N1CCC(C(CO)N2CCC(c3ccc(F)cc3)CC2)CC1 (stereo not drawn) [Cpd 192, (2E)-3-(3,5-difluoro-phenyl)-1-(4-{1-[4-(4-fluoro-phenyl)-piperidin-1-yl]-2-hydroxy-ethyl}-piperidin-1-yl)-propenone] | 220 nM | 170 nM | 350 nM | – | – | –
O=C(/C=C/c1cc(F)cc(F)c1)N1CCC(C(CO)N2CCC(c3c[nH]c4c3ccc[n+]4[O-])CC2)CC1 (stereo not drawn) [Cpd 205, (2E)-3-(3,5-difluoro-phenyl)-1-(4-{2-hydroxy-1-[4-(7-oxy-1H-pyrrolo[2,3-b]pyridin-3-yl)-piperidin-1-yl]-ethyl}-piperidin-1-yl)-propenone] | 40 nM | 20 nM | 40 nM | – | – | –
COc1ccc(C2CCN([C@H](CO)C3CCN(C(=O)/C=C/c4cc(F)cc(F)c4)CC3)CC2)cc1 [Cpd 180, (2E)-3-(3,5-difluoro-phenyl)-1-(4-{(1S)-2-hydroxy-1-[4-(4-methoxy-phenyl)-piperidin-1-yl]-ethyl}-piperidin-1-yl)-propenone] | 70 nM | 120 nM | 90 nM | – | – | –
O=C(/C=C/c1cc(F)cc(F)c1)N1CCC(C(CO)N2CCC(c3c[nH]c4ccc(F)cc34)CC2)CC1 (stereo not drawn) [Cpd 171, (2E)-3-(3,5-difluoro-phenyl)-1-(4-{1-[4-(5-fluoro-1H-indol-3-yl)-piperidin-1-yl]-2-hydroxy-ethyl}-piperidin-1-yl)-propenone] | 4.5 nM | 7 nM | 6 nM | – | – | –
O=C(/C=C/c1ccc(Cl)c(Cl)c1)N1CCC(C(CO)N2CCC(c3cc[nH]n3)CC2)CC1 (stereo not drawn) [Cpd 155, (2E)-3-(3,4-dichloro-phenyl)-1-(4-{2-hydroxy-1-[4-(1H-pyrazol-3-yl)-piperidin-1-yl]-ethyl}-piperidin-1-yl)-propenone] | 207 nM | 940 nM | 130 nM | – | – | –
O=C(/C=C/c1cc(F)c(F)c(F)c1)N1CCC(C(CO)N2CCC(c3c[nH]c4ccccc34)CC2)CC1 (stereo not drawn) [Cpd 112, (2E)-1-(4-{2-hydroxy-1-[4-(1H-indol-3-yl)-piperidin-1-yl]-ethyl}-piperidin-1-yl)-3-(3,4,5-trifluoro-phenyl)-propenone] | 4 nM | 0.6 nM | 4 nM | – | – | –
COc1ccc(C2CCN(C(CO)C3CCN(C(=O)/C=C/c4ccc(F)c(Br)c4)CC3)CC2)cc1 (stereo not drawn) [Cpd 161, (2E)-3-(3-bromo-4-fluoro-phenyl)-1-(4-{2-hydroxy-1-[4-(4-methoxy-phenyl)-piperidin-1-yl]-ethyl}-piperidin-1-yl)-propenone] | 50 nM | 180 nM | 90 nM | – | – | –
COC(=O)c1ccc2[nH]cc(C3CCN(C(C(=O)O)C4CCN(C(=O)/C=C/c5cc(F)c(F)c(F)c5)CC4)CC3)c2c1 (stereo not drawn) [Cpd 146, 3-[1-(carboxy-{1-[(2E)-3-(3,4,5-trifluoro-phenyl)-acryloyl]-piperidin-4-yl}-methyl)-piperidin-4-yl]-1H-indole-5-carboxylic acid methyl ester] | 7 nM | 50 nM | 53 nM | – | – | –
CS(=O)(=O)N(CC(C1CCN(C(=O)/C=C/c2cc(F)cc(F)c2)CC1)N1CCC(c2c[nH]c3ccccc23)CC1)S(C)(=O)=O (stereo not drawn) [Cpd 134, N-{2-{1-[(2E)-3-(3,5-difluoro-phenyl)-acryloyl]-piperidin-4-yl}-2-[4-(1H-indol-3-yl)-piperidin-1-yl]-ethyl}-N-methanesulfonyl-methanesulfonamide] | 300 nM | 10 nM | 90 nM | – | – | –
O=C(/C=C/c1cc(F)c(F)c(F)c1)N1CCC(C(CO)N2CCC(c3nc4ccccc4[nH]3)CC2)CC1 (stereo not drawn) [Cpd 175, (2E)-1-(4-{1-[4-(1H-benzoimidazol-2-yl)-piperidin-1-yl]-2-hydroxy-ethyl}-piperidin-1-yl)-3-(3,4,5-trifluoro-phenyl)-propenone] | 188 nM | 2300 nM | 300 nM | – | – | –

More lines, now with the values ahead:

IC50 [1] | IC50 [2, 4] | IC50 [3] | IC50 [2, 5] | IC50 ([3]; THP-1, 3 h) | IC50 ([1]; Inhibition of MCP-1 Binding IC50, 125I labeled MCP-1 binding to CCR2, THP-1 cells) | Structure (SMILES)
230 nM | 40 nM | 270 nM | – | – | – | CC(=O)OCC(C1CCN(C(=O)Nc2ccc(Cl)c(Cl)c2)CC1)N1CCC(c2c[nH]c3ccccc23)CC1 (stereo not drawn) [Cpd 242, acetic acid 2-[1-(3,4-dichloro-phenylcarbamoyl)-piperidin-4-yl]-2-[4-(1H-indol-3-yl)-piperidin-1-yl]-ethyl ester]
350 nM | – | – | 210 nM | 290 nM | – | O=C(O)C(C1CCN(C(=O)COc2ccc(Cl)c(Cl)c2)CC1)N1CCC(c2c[nH]c3ccccc23)CC1 (stereo not drawn) [Cpd 114, {1-[2-(3,4-dichloro-phenoxy)-acetyl]-piperidin-4-yl}-[4-(1H-indol-3-yl)-piperidin-1-yl]-acetic acid]
0.6 nM | 2 nM | 0.4 nM | – | – | – | O=C(/C=C/c1cc(F)cc(F)c1)N1CCC(C(CO)N2CCC(c3c[nH]c4ccccc34)CC2)CC1 (stereo not drawn) [Cpd 116, (2E)-3-(3,5-difluoro-phenyl)-1-(4-{2-hydroxy-1-[4-(1H-indol-3-yl)-piperidin-1-yl]-ethyl}-piperidin-1-yl)-propenone]
20 nM | 10 nM | 40 nM | – | – | – | O=C(/C=C/c1ccc(Cl)c(Cl)c1)N1CCC(C(CO)N2CCC(c3c[nH]c4ccc(F)cc34)CC2)CC1 (stereo not drawn) [Cpd 168, (2E)-3-(3,4-dichloro-phenyl)-1-(4-{1-[4-(5-fluoro-1H-indol-3-yl)-piperidin-1-yl]-2-hydroxy-ethyl}-piperidin-1-yl)-propenone]
353 nM | 120 nM | 1600 nM | – | – | – | O=C(O)C(C1CCN(C(=O)Nc2cc(F)cc(C(F)(F)F)c2)CC1)N1CCC(c2c[nH]c3ccccc23)CC1 (stereo not drawn) [Cpd 65, [1-(3-fluoro-5-trifluoromethyl-phenylcarbamoyl)-piperidin-4-yl]-[4-(1H-indol-3-yl)-piperidin-1-yl]-acetic acid]
760 nM | 820 nM | 750 nM | – | – | – | CSc1ccc(NC(=O)N2CCC(C(C(=O)O)N3CCC(c4c[nH]c5ccccc45)CC3)CC2)cc1 (stereo not drawn) [Cpd 127, [4-(1H-indol-3-yl)-piperidin-1-yl]-[1-(4-methylsulfanyl-phenylcarbamoyl)-piperidin-4-yl]-acetic acid]
210 nM | 2000 nM | 620 nM | – | – | – | CC(=O)NCC(C1CCN(C(=O)Nc2ccc(Cl)c(Cl)c2)CC1)N1CCC(c2c[nH]c3ccccc23)CC1 (stereo not drawn) [Cpd 217]
215 nM | 70 nM | 110 nM | – | – | – | CC(=O)OCC(C1CCN(C(=O)/C=C/c2ccc(Cl)c(Cl)c2)CC1)N1CCC(c2c[nH]c3ccccc23)CC1 (stereo not drawn) [Cpd 237, acetic acid 2-{1-[(2E)-3-(3,4-dichloro-phenyl)-acryloyl]-piperidin-4-yl}-2-[4-(1H-indol-3-yl)-piperidin-1-yl]-ethyl ester]
– | – | – | 1 nM | 95 nM | 6 nM | O=C(/C=C/c1ccc(F)c(F)c1)N1CCC(C(CO)N2CCC(c3c[nH]c4ccccc34)CC2)CC1 (stereo not drawn) [Cpd 113, (2E)-3-(3,4-difluoro-phenyl)-1-(4-{2-hydroxy-1-[4-(1H-indol-3-yl)-piperidin-1-yl]-ethyl}-piperidin-1-yl)-propenone]
